Assay results reported in US8912227B1, “Bicyclic pyrrole derivatives useful as agonists of GPR120” (Janssen Pharmaceutica NV, priority 2014, dated 2014).

target: T1, long form of human GPR120 (Homo sapiens, UniProt Q5NUL3); assay: Human GPR120 DiscoveRx PathHunter β-Arrestin assay, Procedure β-arrestin A; assay type: cell-based; conditions: PathHunter CHO-K1 GPR120 β-Arrestin cell line, 3000 cells per well
T1 construct: host or cells: PathHunter CHO-K1 GPR120 β-Arrestin Cell Line
Procedure, shortened: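 PathHunter CHO-K1 β-arrestin cells (NM_181745 construct) were plated at 3000/well overnight, then held 60 min in HBSS/20 mM HEPES/0.1% BSA, pH 7.4. Compounds (dilution series 25–0.012 µM before addition) were added for 90 min at 37 °C, followed by 60 min RT luminescence detection. EC50 was fitted from % of positive control with Hill slope fixed at 1.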

T1 sequence (Q5NUL3 1-377 isoform Q5NUL3-1): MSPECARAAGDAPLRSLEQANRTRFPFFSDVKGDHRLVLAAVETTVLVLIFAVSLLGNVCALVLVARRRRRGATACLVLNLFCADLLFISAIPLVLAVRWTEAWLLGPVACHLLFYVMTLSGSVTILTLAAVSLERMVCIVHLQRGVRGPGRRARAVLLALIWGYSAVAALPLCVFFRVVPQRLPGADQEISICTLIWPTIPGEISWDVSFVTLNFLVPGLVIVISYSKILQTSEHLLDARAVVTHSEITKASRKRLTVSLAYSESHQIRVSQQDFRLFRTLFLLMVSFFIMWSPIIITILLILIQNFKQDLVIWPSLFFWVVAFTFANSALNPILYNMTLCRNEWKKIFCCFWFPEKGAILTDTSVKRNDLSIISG
T1 sequence (P32121 whole entry partner): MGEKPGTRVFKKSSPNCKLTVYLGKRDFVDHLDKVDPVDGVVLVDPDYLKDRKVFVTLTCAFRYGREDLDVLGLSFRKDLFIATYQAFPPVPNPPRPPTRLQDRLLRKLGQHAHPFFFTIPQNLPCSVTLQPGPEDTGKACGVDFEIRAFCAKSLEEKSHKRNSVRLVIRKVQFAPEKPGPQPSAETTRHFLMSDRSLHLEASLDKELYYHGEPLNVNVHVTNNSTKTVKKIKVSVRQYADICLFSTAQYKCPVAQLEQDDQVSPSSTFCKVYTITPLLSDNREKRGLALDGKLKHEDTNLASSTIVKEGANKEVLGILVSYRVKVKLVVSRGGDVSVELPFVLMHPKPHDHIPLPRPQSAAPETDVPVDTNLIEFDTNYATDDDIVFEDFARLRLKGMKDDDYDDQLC

SMILES	EC50
Cc1c(CCC(=O)O)ccc(OCc2cccn2-c2ccc(Cl)cc2)c1C [Compound 1, 3-(4-{[1-(4-Chlorophenyl)-1H-pyrrol-2-yl]methoxy}-2,3-dimethylphenyl)propanoic acid]	1040 nM
OCCCc1ccc(OCc2c(C(F)(F)F)ccn2-c2ccc(Cl)cc2)c(F)c1F [Compound 29, 3-(4-{[1-(4-Chlorophenyl)-3-(trifluoromethyl)-1H-pyrrol-2-yl]methoxy}-2,3-difluorophenyl)propan-1-ol]	53 nM
CCc1ccc(-n2ccc(C(F)(F)F)c2COc2ccc(CCC(=O)O)c(F)c2F)cc1 [Compound 34, 3-(4-[[1-(4-ethylphenyl)-3-(trifluoromethyl)-1H-pyrrol-2-yl]methoxy]-2,3-difluorophenyl)propanoic acid]	171 nM
Cc1ccc(-n2ccc(C(F)(F)F)c2COc2c(F)cc(CCC(=O)O)cc2F)cc1 [Compound 39, 3-(3,5-difluoro-4-[[1-(4-methylphenyl)-3-(trifluoromethyl)-1H-pyrrol-2-yl]methoxy]phenyl)propanoic acid]	264 nM
